Results taken from article PMC12590273, “Systematic design of DMBT1-derived peptides correlating physicochemical properties and sequence motifs with siRNA delivery and efficacy in cancer therapy” (eBioMedicine, 2025).
Non-standard residues stand in square brackets, D forms with d. Residues, ends and D or L forms follow the SMILES beside them.

Tests used:
[1] = tested on: siRNA (Stealth RNAi Negative Control siRNA); assay: Electrophoretic mobility shift assay (EMSA), peptide-siRNA binding/encapsulation; settings: peptides 10–100 μM mixed with siRNA at 1:10–1:100 molar ratios in RNase-free water, 30 min 37 °C or 1 h 50 °C; 4% agarose gel, MOPS pH 7.5, GelRed
Description: Peptides (10–100 μM) were mixed with siRNA at 1:10–1:100 molar ratios in RNase-free water and incubated 30 min at 37 °C (or 1 h at 50 °C for low-binding peptides). Complexes, supplemented with 5% glycerol, were run on 4% agarose gels in MOPS buffer (pH 7.5) at 70 V for 30 min, stained with GelRed, and imaged under UV. FastRuler UltraLow served as the size marker.

GAPDH in A375 cells = assay: GAPDH silencing by DCPP/GAPDH-siRNA complexes (KDalert kit); assay type: cell-based, human; settings: 2.5% FBS, 48 h, three biological replicates
Description: GAPDH silencing: DCPP/GAPDH-siRNA complexes were prepared as above, diluted in OptiMEM, and added (50 μL) to 96-well plates. A375 and MCF7 cells (2 × 10^3 cells/well) in 50 μL OptiMEM + 5% FBS + 1% P/S were plated onto the complexes (final 100 μL, 2.5% FBS). After 48 h, GAPDH knock-down was measured with the KDalert™ kit.

A375 and MCF7 cells = assay: Cell internalisation of DCPP/Alexa Fluor 555 siRNA complexes (statements not split by cell line); assay type: cell-based; settings: Alexa Fluor 555 siRNA 25–100 nM, 24 h, fluorescence normalised to crystal violet; cell line not stated
Description: A375 (RRID: CVCL_0132) and MCF7 cells (RRID: CVCL_0031) were obtained from ATCC. MEL-STV cells (here called MelST, RRID: CVCL_9U71) are immortalised human melanocytes generated by introducing SV40 large T antigen and hTERT. They are non-tumorigenic and were kindly provided by Dr. Robert Allan Weinberg (Whitehead Institute, MIT). All cell lines were cultured in DMEM + GlutaMax™ with 5% FBS at 37 °C/5% CO2. Working solutions of Alexa Fluor 555 siRNA were prepared in UltraPure DNase/RNase-Free Distilled Water at concentrations of 100–400 nM, and peptide solutions were prepared to achieve the desired peptide–siRNA binding molar ratios, selected based on the siRNA binding efficiency of each peptide. siRNA was mixed with its respective peptide solution and incubated for 30 min at 37 °C or 1 h at 50 °C, depending on the peptide. After incubation, the complexes were diluted in OptiMEM and added to the wells at 50 μL per well, with final siRNA concentrations ranging from 25 to 100 nM. […] OptiMEM without phenol red was added, and fluorescence was measured using Alexa Fluor 555 (excitation/emission: 553/568 nm, reading: 535/595 nm). Cells were subsequently stained with crystal violet and resuspended in citrate buffer, and absorbance was measured. Crystal violet absorbance was used to normalise the fluorescence signal, accounting for cell density or viability differences.

| Compound | siRNA binding / encapsulation (peptide-siRNA binding molar ratio by EMSA) [1] | GAPDH silencing in A375 cells (GAPDH in A375 cells) | shape of dose–response curve of cell interaction (A375 and MCF7 cells) |
| --- | --- | --- | --- |
| CC(=O)N[C@@H](CCCCN)C(=O)N1CCC[C@H]1C(=O)N[C@@H](CO)C(=O)N[C@@H](CO)C(=O)N1CCC[C@H]1C(=O)N1CCC[C@H]1C(=O)N[C@@H](CCC(=O)O)C(=O)N[C@@H](CCC(=O)O)C(=O)NCC(=O)N[C@H](CCCNC(=N)N)C(=O)N[C@H](C(=O)N[C@@H](CCC(=O)O)C(=O)N[C@H](C(=O)N[C@@H](CC(C)C)C(=O)N[C@@H](Cc1c[nH]cn1)C(=O)N[C@@H](Cc1c[nH]cn1)C(=O)N[C@@H](Cc1c[nH]cn1)C(=O)N[C@@H](Cc1c[nH]cn1)C(=O)N[C@H](Cc1c[nH]c2ccccc12)C(=O)N[C@@H](CCCNC(=N)N)C(=O)N[C@@H](CCCNC(=N)N)C(=O)N[C@@H](CCCNC(=N)N)C(=O)N[C@@H](CCCNC(=N)N)C(=O)N[C@H](Cc1c[nH]c2ccccc12)C(N)=O)C(C)C)C(C)C [A6DH, Ac-KPSSPPEEGrVEVLHHHHwRRRRw-NH2] (Ac-KPSSPPEEG[dR]VEVLHHHH[dW]RRRR[dW]-NH2) | no detectable siRNA binding |  |  |
| Ac-GRVEVLRRRRWKPSSPPEEHH-NH2 [D4RA6H, CD44-targeting DMBT1-derived peptide containing the A6 motif] | no detectable siRNA binding |  |  |
| SREPRGDK | efficiently bound siRNA |  |  |
| SREPRGD | efficiently bound siRNA | significant gene silencing | sigmoid curve with a plateau |
